Source: BindingDB's records for doi:10.1016/j.bmcl.2014.08.026 (Rhône-Poulenc Rorer, 2014)

Assay: Antagonist activity at CRTH2 receptor in human whole blood assessed as inhibition of PGD2-induced eosinophil shape change after 10 mins by fluorescence assay

IC50: 8 nM
Compound: Cc1c(Cc2ccccc2S(=O)(=O)c2ccccc2)c2c(n1CC(=O)O)CCNC2=O
